Test results taken from patent publication US20150296788A1, “PESTICIDALLY ACTIVE TRICYCLIC PYRIDYL DERIVATIVES” (SYNGENTA PARTICIPATIONS AG, priority 2012, published 2015).

Legend:
Format in all cases: in vivo
[1] = system: Myzus persicae (Green Peach Aphid); assay: Activity against Myzus persicae (green peach aphid), leaf disc, feeding/residual contact, preventive; settings: foliar, 144 h, sunflower leaf discs sprayed, mixed-age aphid population, 6 days incubation
Procedure: Activity Against Myzus persicae (Green Peach Aphid)
(Mixed Population, Feeding/Residual Contact Activity, Preventive)
(§1) Sunflower leaf discs were placed on agar in a 24-well microtiter plate and sprayed with test solutions. After drying, the leaf discs were infested with an aphid population of mixed ages. After an incubation period of 6 days, samples were checked for mortality.

[2] = system: Bemisia tabaci (Cotton White Fly); assay: Activity against Bemisia tabaci (cotton white fly), leaf disc, feeding/residual contact, preventive; settings: foliar, 144 h, cotton leaf discs sprayed, 12 to 18 adults, 6 days after infestation
Procedure: Activity Against Bemisia tabaci (Cotton White Fly)
(Feeding/Residual Contact Activity, Preventive)
Cotton leaf discs were placed on agar in a 24-well microtiter plate and sprayed with test solutions. After drying, the leaf discs were infested with 12 to 18 adults. After an incubation period of 6 days after infestation, samples were checked for mortality and special effects (e.g. phytotoxicity).

[3] = system: Frankliniella occidentalis (Western Flower Thrips); assay: Activity against Frankliniella occidentalis (western flower thrips), leaf disc, feeding/residual contact, preventative; settings: foliar, 168 h, sunflower leaf discs sprayed, mixed-age population, 7 DAT
Procedure: Activity Against Frankliniella occidentalis (Western Flower Thrips)
(Mixed Population, Feeding/Residual Contact Activity, Preventative)
as §1, with “are” for “were”, “a Frankliniella” for “an aphid”, “7 DAT,” for “6 days,”, “mortality and special effects (e.g. phytotoxicity).” for “mortality.”

| SMILES | mortality at 200 ppm [1] [%] | mortality at 200 ppm [2] [%] | mortality at 200 ppm [3] [%] |
| --- | --- | --- | --- |
| c1cncc(-n2cc(-c3ccc4c(n3)-c3ncncc3CC4)cn2)c1 [Compound 1.001, 9-[1-(3-pyridyl)pyrazol-4-yl]-5,6-dihydropyrido[3,2-h]quinazoline] | > 80 | > 80 |  |
| c1cncc(-n2cc(-c3ccc4c(n3)-c3n[nH]cc3CC4)cn2)c1 [Compound 1.002, 8-[1-(3-pyridyl)pyrazol-4-yl]-4,5-dihydro-2H-pyrazolo[4,3h]quinoline] | > 80 | > 80 |  |
| CN1c2ccc(-c3cnn(-c4cccnc4)c3)nc2-c2ncncc2S1(=O)=O [Compound 1.003, 9-methyl-6-(1-pyridin-3-yl-1H-pyrazol-4-yl)-9H-10-thia-2,4,5,9-tetraaza-phenanthrene 10,10-dioxide] | > 80 |  | > 80 |
| CN1c2ccc(-c3cnn(-c4cccnc4)c3)nc2-c2[nH]ncc2S1(=O)=O [Compound 1.004, 5-methyl-8-(1-pyridin-3-yl-1H-pyrazol-4-yl)-1,5-dihydro-4-thia-1,2,5,9-tetraaza-cyclopenta[a]naphthalene 4,4-dioxide] | > 80 | > 80 | > 80 |
